Legend:
PPARγ [1] = test system: T1, PPARγ; test: PPARγ mRNA, protein and transcriptional activity in dorsal striatum of CRS-induced mice; type: in vivo; conditions: intra-dorsal striatum pioglitazone, GlcCer or combination
T1 construct: from tissue; host or cells: mouse dorsal striatum
Text: Dorsal striatal tissues were processed in accordance with the RNA isolation kit's instructions (RC102/RC112; Vazyme Biotech Co.,Ltd), mRNA was reverse transcribed using HiScript® III All-in-one RT SuperMix (Vazyme Biotech Co.,Ltd), and cDNA was amplified using SYBR Green (Vazyme Biotech Co.,Ltd). The 2^-ΔΔCt method was used to analyze gene expression, and the relative level of the target gene was normalized to Gapdh. The primer sequences can be found in Supplemental materials Table S1.
Brain tissues were cut into small pieces and then centrifuged at 13,000 g for 15 min at 4 °C. Supernatants were collected, and proteins concentrations were determined by BCA assay. Samples were denatured at 95 °C for 5 min and subsequently stored at -80 °C for further use. Protein samples were loaded onto 10% SDS-PAGE and transferred on PVDF membranes. After being blocked with 5% nonfat dry milk in Tris-buffered saline with 0.1% Tween-20 for 1.5 h, the PVDF membranes were incubated with corresponding primary antibodies overnight at 4 °C. Membranes were then incubated with HRP-conjugated secondary antibodies for 1 h at room temperature and measured with chemiluminescence imaging system (ChemiScope; Clinx, China).
(§1) Nuclear extracts were prepared from N2a cells using a nuclear extraction kit according to the manufacturer protocol. The binding reaction between PPARγ and PPRE was carried out at 4°C for 16 h using 3 μg of nuclear extracts. The binding activity between PPARγ and PPRE was indicated by the change of optical density (OD) at 405 nm, and an enzyme reaction was measured by HRP-conjugated antibody in complex of PPRE/ PPARγ/antibody.

aged mice = conditions: oral administration, ref [35]; cited from earlier work
[2] = LC-MS of GlcCer levels in dorsal striatum of CRS-induced mice; type: in vivo; conditions: intra-dorsal striatum infusion of pioglitazone, GlcCer or combination
Method: The procedure for the extraction of sphingolipids was established according to the LIPID MAPS protocol with modifications. Briefly, dorsal striatal tissues were added 0.5 mL of MeOH, 0.25 mL of CHCl3 and 7.5 μL of internal standards cocktail (2.5 μM). For sphingolipidomics, 5 μL of internal standards mixture (LM6002, Avanti polar lipids) was added. The mixture was then ultrasonicated for 45 s at room temperature and incubation at 48°C overnight. To avoid potentially interfering glycerolipids, 75 μL of KOH in MeOH (1M) was added, followed by incubation in a heat block at 200 rpm for 2 h at 37 °C. After neutralization, a four-step extraction process was performed to obtain SPL extract for analysis. The supernatant was transferred to a new Eppendorf tube and the resides were added l mL of MeOH and 2 mL of CHCl3, followed by centrifugation at 3800 rpm for 8 min. […] Sphingolipidomics were measured with ultra-high-performance liquid chromatography (UPLC) coupled with hybrid Quadrupole-Orbitrap high resolution mass spectrometry (Q-Exactive-HRMS). […] For […] quantitation, brain tissues were quantified by UPLC-MS/MS using a Q-Exactive-HRMS with UPLC. […] Quantification of […] with various fatty acid chain lengths were achieved using the calibration curve of each GlcCer species with closest number of chain length. […]

PPARγ [3] = test: PPRE-luciferase (dual-luciferase) activity assay in N2a cells; type: cell-based; conditions: N2a cells transfected with wild-type Pparg
Method: N2a cells were seeded into 24-well plates and cultured for 24 hours before transfection. A DNA mixture containing the PPRE-luciferase reporter plasmid (0.5 μg), PPARγ/ PPARγ mutation plasmid (0.5 μg) and an internal control plasmid pRL-SV-40 (25 ng) was transfected using lipofectamine 3000 transfection reagent (L3000001, Invitrogen, USA) according to the manufacturer's recommendations. After transfection, the cells were incubated for an additional 48 h.

PPARγ [4] = test system: T1, PPARγ; test: Lipid-protein pull down assay, dorsal striatum lysate; type: binding; conditions: GlcCer-beads, dorsal striatum of mice
Method: Dorsal striatal tissues were cut into small pieces and then centrifuged at 13,000 g for 15 min at 4 °C. Supernatants were collected, and protein concentrations were determined using BCA assay. GlcCer-beads were equilibrated by washing them three times with ice-cold PBS. The clarified cell lysate was added to the equilibrated beads, then the mixture was incubated on a rotator at 4 °C for overnight, use approximately 500 µg of total protein per reaction. After incubation, the beads were washed three times with ice-cold PBS. Following the final wash, the beads were resuspended in SDS-PAGE sample buffer and heat at 95°C for 5 min to elute the bound proteins. The eluted sample was used to western blotting analysis.

human PPARγ AF1 domain = molecular target: T2, human PPARγ AF1 domain (Homo sapiens, UniProt P37231); test: Surface plasmon resonance, PPARγ AF1 domain; type: binding; conditions: SPR
T2 sequence (P37231 31-135 limits assumed): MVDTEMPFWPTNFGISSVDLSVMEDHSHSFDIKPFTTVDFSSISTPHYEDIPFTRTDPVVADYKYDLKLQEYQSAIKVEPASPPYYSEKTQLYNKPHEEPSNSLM

PPARγ [5] = test system: T3, PPARγ; test: PPARγ transcription activity assay (PPRE binding), N2a cells; type: cell-based
T3 construct: endogenous in cells; host or cells: N2a cells (nuclear extract)
Method: as §1

Substance: Glucosylceramide [GlcCer]
- PPARγ activity in the dorsal striatum (PPARγ [1]): significantly enhanced
- PPARγ mRNA or protein expression (PPARγ [1]): neither pioglitazone, GlcCer, nor their combination altered
- neuroinflammation and memory deficits (aged mice): alleviate
- GlcCer levels in the dorsal striatum (LC-MS) [2]: increased
- PPARγ activity (dual-luciferase) (PPARγ [3]): increased
- interaction between PPARγ and GlcCer (lipid-protein binding assay) (PPARγ [4]): direct interaction
- Kd (human PPARγ AF1 domain): 29 ± 3 nM
- PPARγ transcriptional (DNA binding) activity in N2a cells (PPARγ [5]; Figure 5H, GlcCer, pioglitazone or combination): increased PPARγ transcriptional activity in a dose-dependent manner
- PPARγ transcriptional activity, nuclear extracts from N2a cells (PPARγ [5]; pioglitazone (100 nM), GlcCer (10 μM), or their combination, Figure S7F): significantly increased

From article PMC12775823, “Glucosylceramide regulates depression through activating peroxisome proliferator-activated receptor gamma in dorsal striatum” (Theranostics, 2026)
